Data from PubChem BioAssay (NCI).
Where “and” joins values, the source holds several entries; their conditions need not be identical. Identical values can stand only once.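 Interpolation was linear, between the two tested concentrations surrounding the appropriate level; five concentrations were tested over 48 hours in 96-well plates. The concentration for 50% growth inhibition is given as GI50. TGI is the concentration that stops growth completely.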

Assays:
Assay in all cases: inhibition of tumour cell growth, NCI panel, 48 h
[1] = tested on: HCT-15 colon
[2] = tested on: EKVX NSCLC
[3] = tested on: HL-60(TB) leukemia
[4] = tested on: IGROV1 ovarian
[5] = tested on: OVCAR-5 ovarian
[6] = tested on: NCI/ADR-RES ovarian
[7] = tested on: CAKI-1 renal
[8] = tested on: 786-0 renal
[9] = tested on: UACC-257 melanoma
[10] = tested on: OVCAR-8 ovarian

SMILES | GI50 [1] | TGI [1] [µM] | GI50 [2] | TGI [2] [µM] | GI50 [3] | TGI [3] [µM] | GI50 [4] | TGI [4] | GI50 [5] | TGI [5] [µM] | GI50 [6] | TGI [6] [µM] | GI50 [7] | TGI [7] [µM] | GI50 [8] | TGI [8] | GI50 [9] | TGI [9] [µM] | GI50 [10] | TGI [10] [µM]
Cc1[nH]nc2ncc(C(=O)N3CCC[C@H]3c3ccc(Cl)cc3)cc12 | 58.3 µM | > 100 | 79.8 µM | > 100 | 32.6 µM | 90.7 | 66.1 µM | > 100 µM | > 100 µM | > 100 | > 100 µM | > 100 | > 100 µM | > 100 | 47.7 µM | > 100 µM | > 100 µM | > 100 | > 100 µM | > 100
CN(C)c1ccccc1[CH2][Ga]([Cl])[CH2]c1ccccc1N(C)C | 0.698 µM | 2.33 | 0.794 µM | 2.24 | 2.7 µM | 5.36 | 1.29 µM | 2.73 µM | 1.35 µM | 2.73 | 1.87 µM | 4.22 | 1.58 µM | 3.94 | 1.38 µM | 2.8 µM | 1.51 µM | 3.05 | 1.47 µM | 3.23
CC/C=C\C[C@H](O)C/C=C1/C(=O)C=C[C@@H]1C/C=C\CCCCO | 1.58 µM | 4.57 | 4.22 µM | 18 | 2.29 µM | 6.88 | 3.22 µM | 12 µM | 3.25 µM | 8.95 | 3.35 µM | 38.4 | 3.14 µM | 12.8 | 1.91 µM | 3.77 µM | 2.59 µM | 9.36 | 3.24 µM | 11.9
CC(C)Cc1ccc(C(C)C(=O)NCc2ccc(Cn3c(=O)sn(CCCI)c3=O)cc2)cc1 (stereo not drawn) | 0.237 µM | 0.738 | 1.46 µM | 2.92 | 0.775 µM | > 22.7 | 0.453 µM | 1.38 µM | 1.39 µM | 2.84 | 1.35 µM | 5.19 | 0.404 µM | 1.61 | 0.475 µM | 0.998 µM | 1.28 µM | 2.7 | 0.523 µM | 1.85
O=C(O)Cc1ccc(N=Nc2c(O)c(C(=O)O)cc3ccccc23)cc1 |  | > 100 |  | > 100 |  | > 100 |  | > 100 µM |  | > 100 |  | > 100 |  | > 100 |  | > 100 µM |  | > 100 |  | > 100
COc1ccc2nc3cccc([N+](=O)[O-])c3c(NC(C)CN(C)C)c2c1 (stereo not drawn) | 3.71 µM |  | 6.96 µM | 34.4 | 2.67 µM |  | 1.67 µM | 5.54 µM | 1.73 µM | 5.21 | 2.92 µM | 13 | 2.52 µM | 7.19 | 2.22 µM | 7.12 µM | 2.67 µM | 7.02 | 1.54 µM | 7.64
COc1ccc(OC)c(/C=C/c2ccnc3ccccc23)c1 |  | 17.3 |  | 10.7 |  | 0.977 |  | 17.4 µM |  | 16 |  | 1.56 |  | 18.1 |  | 15.4 µM |  | 18.8 |  | 1.88
Cc1ccccc1C(C(=O)NC1CCCCC1)N(C(=O)CNc1ccc(C#N)cc1)c1cccc(F)c1 (stereo not drawn) | > 100 µM | > 100 | 42.5 µM | > 100 | > 70.5 µM | > 100 | 25 µM | > 100 µM | 46.6 µM | > 100 | 26.2 µM | > 100 | 14.7 µM | > 62.6 | 17.3 µM | > 67.9 µM | 50 µM | > 100 | 10.6 µM | > 100
O=C1CC(N2C(=O)/C(=C/C(Cl)=C\c3ccc([N+](=O)[O-])cc3)SC2=S)C(=O)N1c1ccc(O)cc1 (stereo not drawn) | 0.472 µM | 1.95 | 3.25 µM | 11.7 | 2.44 µM | 9.57 | 1.2 µM | 2.68 µM | 1.91 µM | 3.69 | 2.13 µM | 12.1 | 1.15 µM | 2.42 | 1.23 µM | 4.81 µM | 2.48 µM | 9.12 | 2.16 µM | 14.2
Nc1nn(C(=O)Nc2c(F)cccc2F)c2ccccc12 | 40.9 µM | > 100 | 83.9 µM | > 100 | 33.2 µM | > 100 | 7.7 µM | > 100 µM | > 100 µM | > 100 | 56.5 µM | > 100 | 45.3 µM | > 100 | > 100 µM | > 100 µM | 71.7 µM | > 100 | 44.2 µM | > 100
COc1ccc(Cn2cc3c(c2-c2cc(OC)c(OC)c(OC)c2)CCc2c(CO)noc2-3)cc1 | 0.315 µM | 27.1 | 0.644 µM | > 76.9 | 0.231 µM | 0.656 | 0.596 µM | 32.1 µM | 0.543 µM | > 82.3 | 0.294 µM | > 57 | 0.342 µM | 20.1 | 0.493 µM | 24.7 µM | 16.5 µM | 50.2 | 0.417 µM | 19.6
CC1Cc2ccccc2N1C(=O)Cc1nc(N2CCOCC2)cc(=O)[nH]1 (stereo not drawn) | 16.1 µM and 27.7 µM | > 100 | 7.06 µM and 17.1 µM | > 100 | 20.7 µM and 25.5 µM | > 100 | 3.09 µM and 9.02 µM | 22.8 µM and 52.6 µM | 9.09 µM and 18.2 µM | > 100 | 64.5 µM and > 88.6 µM | > 100 | 10.5 µM and 28 µM | > 100 | 0.639 µM and 3.19 µM | > 100 µM and 98.4 µM | 15.9 µM and 20.2 µM | > 100 | 34.8 µM and 32 µM | > 100
Cc1ccccc1C(C(=O)NC1CCCCC1)N(C(=O)CNc1ncccc1F)c1cccc(F)c1 (stereo not drawn) | > 100 µM | > 100 | > 100 µM | > 100 | > 100 µM | > 100 | > 80 µM | > 100 µM | > 100 µM | > 100 | > 100 µM | > 100 | > 53.1 µM | > 100 | 32.8 µM | > 100 µM | > 100 µM | > 100 | 19 µM | > 100
Cc1ccc(OCCOCCOCCOCCOCCOc2ccc(C)n(O)c2=S)c(=S)n1O | 0.0392 µM | > 100 | 0.0392 µM | > 100 | 0.0441 µM | 0.638 | 0.0372 µM | > 72.5 µM | 0.0634 µM | > 100 | 0.0478 µM | > 77 | 0.0453 µM | > 100 | 0.0952 µM | > 100 µM | 0.0425 µM | > 66.4 | 0.0384 µM | > 100
Cc1ccsc1-c1ccc2c(c1)COC2(CCCN(C)C)c1ccc(F)cc1 (stereo not drawn) | 3.09 µM | 10.9 | 4.64 µM | 18.5 | 1.93 µM | 4.59 | 1.87 µM | 5.86 µM | 3.81 µM | 15 | 3.83 µM | 15.2 | 2.19 µM | 6.05 | 2.54 µM | 7.97 µM | 1.94 µM | 3.98 | 3.28 µM | 13.2
COc1ccc(-c2cn(-c3cc(OC)c(OC)c(OC)c3)c(=O)[nH]2)cc1OC | > 100 µM | > 100 | > 100 µM | > 100 | > 100 µM | > 100 | > 100 µM | > 100 µM | > 100 µM | > 100 | > 100 µM | > 100 | > 100 µM | > 100 | > 100 µM | > 100 µM | > 100 µM | > 100 | > 100 µM | > 100
O=c1oc2ccc(Br)cc2c(=O)n1-c1ccc(Cl)cc1F | 1.7 µM | 9.52 | 1.45 µM | 7.81 | 1.12 µM | 4.96 | 0.61 µM | 17.2 µM | 3.84 µM | > 100 | 1.41 µM | 6.95 | 0.821 µM | 4.37 | 2.38 µM | 7.11 µM | 0.915 µM | 5.59 | 1.7 µM | > 26.2
Cc1sc2c(c1C)C(c1ccc(Cl)cc1)=N[C@@H](CC(=O)NCCCN1CCN(C)CC1)c1nnc(C)n1-2 | 16.8 µM | > 100 | > 34.6 µM | > 100 | 0.0583 µM | 5.7 | 0.618 µM | > 100 µM | 1.99 µM | > 100 | > 100 µM | > 100 | 0.684 µM | > 100 | 5.48 µM | > 100 µM | 3.26 µM | > 100 | 4.96 µM | > 100
